Where a chain is given by its changes, count along the chain named.
Tests used:
[1] = molecular target: T1, MERTK (Homo sapiens, UniProt Q12866, K591R/K693R/K702R/K856R); assay: X-ray cocrystal structure at […] Å; type: binding
T1 construct: kinase domain (residues 571–864), KR mutant
T1 sequence (Q12866 571-864 K591R/K693R/K702R/K856R): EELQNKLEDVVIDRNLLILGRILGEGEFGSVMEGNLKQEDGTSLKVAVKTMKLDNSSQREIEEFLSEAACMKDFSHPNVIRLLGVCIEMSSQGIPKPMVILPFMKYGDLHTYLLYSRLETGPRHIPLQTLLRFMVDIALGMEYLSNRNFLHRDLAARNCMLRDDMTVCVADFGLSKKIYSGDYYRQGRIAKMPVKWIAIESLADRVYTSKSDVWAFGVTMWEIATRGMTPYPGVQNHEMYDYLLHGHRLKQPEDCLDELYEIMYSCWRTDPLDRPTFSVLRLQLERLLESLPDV

[2] = molecular target: T2, MERTK (Homo sapiens, UniProt Q12866); assay: HTRF KinEASE-TK kinase kinetic assay; type: biochemical
T2 construct: kinase domain (residues 571–864, wild type; WT)
T2 sequence (Q12866 571-864): T1 sequence (Q12866 571-864 K591R/K693R/K702R/K856R) with R21K, R123K, R132K, R286K

Ki [2]: 22.4 nM
SMILES: Nc1nccc(Oc2ccc(NC(=O)c3c[nH]cc(-c4ccc(F)cc4)c3=O)cc2F)c1Cl [BMS794833, N-[4-(2-amino-3-chloropyridin-4-yl)oxy-3-fluorophenyl]-5-(4-fluorophenyl)-4-oxo-1H-pyridine-3-carboxamide]
X-ray cocrystal structure at 2.16 Å [1]: clear electron density map for BMS794833 showed that it occupied both the ATP-binding pocket and the allosteric back pocket
